From article PMC6718736, “Validation of in vitro methods for human cytochrome P450 enzyme induction: Outcome of a multi-laboratory study” (Toxicology in Vitro, 2019)
“Also recorded” adds a separate entry of the source. Like-named read-outs stand apart in the source and are kept apart here. Values belong to the molecule of their own block, whether it stands above or below them.

Experiments:
[1] = Solubility by visual inspection (DMSO stock solution and assay medium); format: physicochemical; conditions: assay medium
Protocol: The SOPs relied on visual inspection for solubility observation. […] The absence of precipitation in the medium was checked pre- and post-incubation (24 hours) by centrifugation of the sample and observation of any precipitation (pellet residue).

[2] = Solubility by nephelometry (EURL ECVAM); format: physicochemical; conditions: ECVAM nephelometry, ^2 = solubility limit
Text: In addition to the visual inspection performed by the validation laboratories as described in the SOP, EURL ECVAM introduced nephelometry for systematic solubility determination of the 13 validation set chemicals. Nephelometry uses a laser beam and the principle of Tyndall effect light scatter to detect turbidity due to insolubility. The nephelometer method used formazin as reference item (1, 5, 10 and 20 nephelometric turbidity units (NTU)) to calculate the relative turbidity (RTU) of the validation set of chemicals. To the naked eye, 20 NTU is perceptible, while the nephelometer was sensitive to 5 NTU, with 1 NTU equivalent to background (solvent/medium blank).

[3] = cited from earlier work
[4] = system: CYP1A2; conditions: cited from earlier work; for Induction in vivo: CYP1A2, human, ref Table 1
[5] = system: CYP3A4; experiment: CYP3A4 enzyme induction assay in cryopreserved HepaRG cells (midazolam probe, LC/MS); format: in vitro ADME, human; conditions: for Assigned classification CYP3A4: HepaRG; as to Assigned classification CYP3A4: key: 1=Positive=inducer; 0=Negative=non-inducer
[6] = system: CYP2B6; experiment: CYP2B6 enzyme induction assay in cryopreserved HepaRG cells (bupropion probe, LC/MS); format: in vitro ADME, human; conditions: for Assigned classification CYP2B6: HepaRG; for Prediction in vivo inducer: Cmax/F2 >0.5 criterion; as to Assigned classification CYP2B6: key: 1=Positive=inducer; 0=Negative=non-inducer
[7] = system: CYP1A2; experiment: CYP1A2 enzyme induction assay in cryopreserved HepaRG cells (phenacetin probe, LC/MS); format: in vitro ADME, human; conditions: for Prediction in vivo inducer: Cmax/F2 >0.5 criterion; for Induction in vitro: positive in one batch in each of the three laboratories; for Assigned classification CYP1A2: HepaRG; as to Assigned classification CYP1A2: key: 1=Positive=inducer; 0=Negative=non-inducer
[8] = system: CYP3A4; experiment: CYP3A4 enzyme induction assay in cryopreserved primary human hepatocytes (PHH); conditions: for Assigned classification CYP3A4: PHH
[9] = system: CYP3A4; conditions: CYP3A4, human in vivo reference classification (Table 11); cited from earlier work
[10] = system: CYP2B6; experiment: CYP2B6 enzyme induction assay in cryopreserved primary human hepatocytes (PHH); format: in vitro ADME; conditions: for Assigned classification CYP2B6: PHH;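 as to Assigned classification CYP2B6: code 1 means positive inducer and 0 means non-inducer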
[11] = system: CYP1A2; experiment: CYP1A2 enzyme induction assay in cryopreserved primary human hepatocytes (PHH); format: in vitro ADME; conditions: for Prediction in vivo inducer / Induction in vitro: CYP1A2, PHH; for Prediction in vivo inducer: Cmax/F2 >0.5 criterion; for Induction in vitro: positive in one donor in each of the three laboratories; for Assigned classification CYP1A2: PHH;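 as to Assigned classification CYP1A2: code 1 means positive inducer and 0 means non-inducer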
[12] = system: CYP2B6; conditions: cited from earlier work
[13] = human in vivo plasma concentration, normal dose
[14] = human in vivo, normal dose (Table 10)
[15] = human in vivo, CYP named without remark = induced, ref references in the cell, Washington University database, Hoffmann et al. (2014), Pelkonen et al. (2008), Hukkanen et al. (2012)

HepaRG medium stability ([1]; Lab 1, visual observation): 40 µg/mL
HepaRG medium stability ([1]; Lab 2, visual observation): 40 µg/mL
HepaRG medium stability ([1]; Lab 3, visual observation): 40 µg/mL
PHH medium stability ([1]; Lab 4, visual observation): 40 µg/mL
PHH medium stability ([1]; Lab 5, visual observation): 40 µg/mL
PHH medium stability ([1]; Lab 6, visual observation): 20 µg/mL
HepaRG medium stability ([2]; HepaRG medium): 40 µg/mL
PHH medium stability ([2]; PHH medium): 40 µg/mL
SMILES: CC1(C)S[C@@H]2[C@H](NC(=O)Cc3ccccc3)C(=O)N2[C@H]1C(=O)O [Penicillin G sodium]
Cmax [3, 13]: 36 µM
Cmax [3, 14]: 36 µM

Induction in vitro ([5]; CYP3A4, HepaRG cells): No
Prediction in vivo inducer ([5]; CYP3A4, HepaRG cells): No
Assigned classification CYP3A4 ([5]; Lab 1, batch 20): 0
Assigned classification CYP3A4 ([5]; Lab 1, batch 35): 0
Assigned classification CYP3A4 ([5]; Lab 1, batch 36): 0
Assigned classification CYP3A4 ([5]; Lab 2, batch 20): 0
Assigned classification CYP3A4 ([5]; Lab 2, batch 35): 0
Assigned classification CYP3A4 ([5]; Lab 2, batch 36): 0
Assigned classification CYP3A4 ([5]; Lab 3, batch 20): 0
Assigned classification CYP3A4 ([5]; Lab 3, batch 35): 0
Assigned classification CYP3A4 ([5]; Lab 3, batch 36): 0
Assigned classification CYP2B6 ([6]; Lab 1, batch 20): 0
Assigned classification CYP2B6 ([6]; Lab 1, batch 35): 0
Assigned classification CYP2B6 ([6]; Lab 1, batch 36): 0
Assigned classification CYP2B6 ([6]; Lab 2, batch 20): 0
Assigned classification CYP2B6 ([6]; Lab 2, batch 35): 0
Assigned classification CYP2B6 ([6]; Lab 2, batch 36): 0
Assigned classification CYP2B6 ([6]; Lab 3, batch 20): 0
Assigned classification CYP2B6 ([6]; Lab 3, batch 35): 0
Assigned classification CYP2B6 ([6]; Lab 3, batch 36): 0
Prediction in vivo inducer ([7]; CYP1A2, HepaRG cells): No
Induction in vitro ([7]; CYP1A2, HepaRG cells): No
Assigned classification CYP1A2 ([7]; Lab 1, batch 20): 0
Assigned classification CYP1A2 ([7]; Lab 1, batch 35): 0
Assigned classification CYP1A2 ([7]; Lab 1, batch 36): 0
Assigned classification CYP1A2 ([7]; Lab 2, batch 20): 0
Assigned classification CYP1A2 ([7]; Lab 2, batch 35): 1
Assigned classification CYP1A2 ([7]; Lab 2, batch 36): 0
Assigned classification CYP1A2 ([7]; Lab 3, batch 20): 0
Assigned classification CYP1A2 ([7]; Lab 3, batch 35): 0
Assigned classification CYP1A2 ([7]; Lab 3, batch 36): 0
Induction in vitro ([8]; CYP3A4, PHH): No
Prediction in vivo inducer ([8]; CYP3A4, PHH): No
Prediction in vivo inducer ([8]; CYP3A4, PHH, Cmax/F2 >0.5 criterion): predicted to be a non-inducer in vivo
Assigned classification CYP3A4 ([8]; Lab 1, batch 0 6 A): 0
Assigned classification CYP3A4 ([8]; Lab 1, batch 4 0 8): 0
Assigned classification CYP3A4 ([8]; Lab 1, batch 8 0 8): 0
Assigned classification CYP3A4 ([8]; Lab 2, batch 0 6 A): 1
Assigned classification CYP3A4 ([8]; Lab 2, batch 4 0 8): 0
Assigned classification CYP3A4 ([8]; Lab 2, batch 8 0 8): 0
Assigned classification CYP3A4 ([8]; Lab 3, batch 0 6 A): 1
Assigned classification CYP3A4 ([8]; Lab 3, batch 4 0 8): 0
Assigned classification CYP3A4 ([8]; Lab 3, batch 8 0 8): 0
Assigned classification CYP2B6 ([10]; Lab 1, batch 0 6 A): 0
Assigned classification CYP2B6 ([10]; Lab 1, batch 4 0 8): 0
Assigned classification CYP2B6 ([10]; Lab 1, batch 8 0 8): 0
Assigned classification CYP2B6 ([10]; Lab 2, batch 0 6 A): 0
Assigned classification CYP2B6 ([10]; Lab 2, batch 4 0 8): 0
Assigned classification CYP2B6 ([10]; Lab 2, batch 8 0 8): 0
Assigned classification CYP2B6 ([10]; Lab 3, batch 0 6 A): 1
Assigned classification CYP2B6 ([10]; Lab 3, batch 4 0 8): 0
Assigned classification CYP2B6 ([10]; Lab 3, batch 8 0 8): 0
Prediction in vivo inducer [11]: No
Induction in vitro [11]: No
Assigned classification CYP1A2 ([11]; Lab 1, batch 0 6 A): 0
Assigned classification CYP1A2 ([11]; Lab 1, batch 4 0 8): 1
Assigned classification CYP1A2 ([11]; Lab 1, batch 8 0 8): 1
Assigned classification CYP1A2 ([11]; Lab 2, batch 0 6 A): 0
Assigned classification CYP1A2 ([11]; Lab 2, batch 4 0 8): 0
Assigned classification CYP1A2 ([11]; Lab 2, batch 8 0 8): 0
Assigned classification CYP1A2 ([11]; Lab 3, batch 0 6 A): 1
Assigned classification CYP1A2 ([11]; Lab 3, batch 4 0 8): 0
Assigned classification CYP1A2 ([11]; Lab 3, batch 8 0 8): 0
SMILES: COCCc1ccc(OCC(O)CNC(C)C)cc1 (stereo not shown) [Metoprolol]
Induction in vivo [4]: No
Induction in vivo [9]: No
Cmax [3, 13]: 0.14 to 0.38 µM
Cmax [3, 14]: 0.14 to 0.38 µM

Prediction in vivo inducer ([6]; CYP2B6, HepaRG cells): Yes
Prediction in vivo inducer ([6]; CYP2B6, HepaRG cells, listed as rifampicin): correctly classified
F2 ([6]; CYP2B6, HepaRG cells, in vitro concentration producing 2-fold induction): 0.6 to 1.80 µM
Induction in vitro ([6]; CYP2B6, HepaRG cells, positive in one batch in each of the three laboratories): Yes
Assigned classification CYP2B6 ([6]; Lab 1, batch 20): 0
Assigned classification CYP2B6 ([6]; Lab 1, batch 35): 1
Assigned classification CYP2B6 ([6]; Lab 1, batch 36): 0
Assigned classification CYP2B6 ([6]; Lab 2, batch 20): 1
Assigned classification CYP2B6 ([6]; Lab 2, batch 35): 0
Assigned classification CYP2B6 ([6]; Lab 2, batch 36): 1
Assigned classification CYP2B6 ([6]; Lab 3, batch 20): 0
Assigned classification CYP2B6 ([6]; Lab 3, batch 35): 0
Assigned classification CYP2B6 ([6]; Lab 3, batch 36): 1
Prediction in vivo inducer ([7]; CYP1A2, HepaRG cells): Yes
F2 ([7]; CYP1A2, HepaRG cells, in vitro concentration producing 2-fold induction): 0.20 to 0.60 µM
Induction in vitro ([7]; CYP1A2, HepaRG cells): Yes
Assigned classification CYP1A2 ([7]; Lab 1, batch 20): 1
Assigned classification CYP1A2 ([7]; Lab 1, batch 35): 1
Assigned classification CYP1A2 ([7]; Lab 1, batch 36): 1
Assigned classification CYP1A2 ([7]; Lab 2, batch 20): 1
Assigned classification CYP1A2 ([7]; Lab 2, batch 35): 1
Assigned classification CYP1A2 ([7]; Lab 2, batch 36): 1
Assigned classification CYP1A2 ([7]; Lab 3, batch 20): 1
Assigned classification CYP1A2 ([7]; Lab 3, batch 35): 1
Assigned classification CYP1A2 ([7]; Lab 3, batch 36): 1
F2 ([10]; CYP2B6, PHH): 0.2 µM
Induction in vitro ([10]; CYP2B6, PHH): Yes
Prediction in vivo inducer ([10]; CYP2B6, PHH): Yes
Prediction in vivo inducer ([10]; CYP2B6, PHH, Cmax/F2 >0.5 criterion): positive
Assigned classification CYP2B6 ([10]; Lab 1, batch 0 6 A): 1
Assigned classification CYP2B6 ([10]; Lab 1, batch 4 0 8): 1
Assigned classification CYP2B6 ([10]; Lab 1, batch 8 0 8): 1
Assigned classification CYP2B6 ([10]; Lab 2, batch 0 6 A): 1
Assigned classification CYP2B6 ([10]; Lab 2, batch 4 0 8): 0
Assigned classification CYP2B6 ([10]; Lab 2, batch 8 0 8): 1
Assigned classification CYP2B6 ([10]; Lab 3, batch 0 6 A): 1
Assigned classification CYP2B6 ([10]; Lab 3, batch 4 0 8): 1
Assigned classification CYP2B6 ([10]; Lab 3, batch 8 0 8): 1
Prediction in vivo inducer [11]: No
Induction in vitro [11]: No
Assigned classification CYP1A2 ([11]; Lab 1, batch 0 6 A): 0
Assigned classification CYP1A2 ([11]; Lab 1, batch 4 0 8): 0
Assigned classification CYP1A2 ([11]; Lab 1, batch 8 0 8): 0
Assigned classification CYP1A2 ([11]; Lab 2, batch 0 6 A): 0
Assigned classification CYP1A2 ([11]; Lab 2, batch 4 0 8): 0
Assigned classification CYP1A2 ([11]; Lab 2, batch 8 0 8): 1
Assigned classification CYP1A2 ([11]; Lab 3, batch 0 6 A): 1
Assigned classification CYP1A2 ([11]; Lab 3, batch 4 0 8): 0
Assigned classification CYP1A2 ([11]; Lab 3, batch 8 0 8): 0
SMILES: CO[C@H]1/C=C/O[C@@]2(C)Oc3c(C)c(O)c4c(O)c(c(/C=N/N5CCN(C)CC5)c(O)c4c3C2=O)NC(=O)/C(C)=C\C=C\[C@H](C)[C@H](O)[C@@H](C)[C@@H](O)[C@@H](C)[C@H](OC(C)=O)[C@@H]1C [Rifampicin]
Induction in vivo [4]: Yes
CYP induction in vivo literature reference: CYP1A2 [4, 15]: CYP1A2
Prediction in vivo inducer ([11]; listed as rifampicin): non-inducer; also recorded: missed the in vivo prediction
Cmax [3, 13]: 8 to 12 µM
Cmax [3, 14]: 8 to 12 µM
Induction in vivo ([12]; CYP2B6, human in vivo reference classification): Yes
Induction in vivo ([12]; CYP2B6, human, ref Table 1): Yes
CYP induction in vivo literature reference: CYP2B6 [12, 15]: CYP2B6

SMILES: C[C@@H]1CC[C@H]2[C@@H](C)C(=O)O[C@@H]3O[C@@]4(C)CC[C@@H]1[C@]32OO4 [Artemisinin]
Cmax [3, 13]: 1 to 2 µM
Cmax [3, 14]: 1 to 2 µM
